These results are taken from PubChem BioAssay (NCI).

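Results reflect a 48-hour exposure of cells in 96-well plates to compound at five concentrations. The concentration for full growth arrest is given as TGI.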

Test systems include CCRF-CEM leukemia; SK-MEL-5 melanoma; OVCAR-5 ovarian; MCF7 breast; TK-10 renal; MDA-N; M14 melanoma; NCI-H23 lung; HL-60(TB) leukemia.
Holding throughout (assay): NCI tumour cell line growth inhibition, 48 h

With `CCOC(=O)C1=C(C)N(c2ccc(OC)cc2)C2(O)C=CC(=O)C3=C(O)c4ccccc4C(=O)C312` (stereo not given), the TGI in the test on CCRF-CEM leukemia is 15.9 µM; in the test on SK-MEL-5 melanoma it was 24.6 µM; with OVCAR-5 ovarian, 33.4 µM; with MCF7 breast it was 19.2 µM; with TK-10 renal, 27.4 µM; in the test with MDA-N it was 34 µM. The TGI was found to be 21.8 µM with M14 melanoma, 37.4 µM in the test on NCI-H23 lung and 21.6 µM in the test on HL-60(TB) leukemia.
Turning to `CC1CC(=O)N(N(C)C)C(C#N)(C#N)C1(C#N)C#N` (stereo not given), the TGI is 4.8 µM with CCRF-CEM leukemia; 47 µM with SK-MEL-5 melanoma; 51.8 µM with OVCAR-5 ovarian; greater than 100 µM with MCF7 breast; 30.3 µM in the test with TK-10 renal; 33.2 µM with MDA-N. Further, the TGI was determined as 42.9 µM in the test on M14 melanoma, 43.8 µM with NCI-H23 lung and 4.83 µM in the test on HL-60(TB) leukemia.
In the case of `CSc1c(C(=O)Nc2ccc(Cl)cc2)c(N)n(N)c(=O)c1C#N`, the TGI with CCRF-CEM leukemia, in the test on SK-MEL-5 melanoma, in the test on OVCAR-5 ovarian, in the test with MCF7 breast, with TK-10 renal and in the test with MDA-N was greater than 100 µM throughout. For the same compound, the TGI in the test on M14 melanoma, with NCI-H23 lung and with HL-60(TB) leukemia was greater than 100 µM each time.
Take `C/C1=C\C=C(\C(C)C)CC/C(C(=O)O)=C\CC/C(C)=C/CC1`: the TGI in the test with CCRF-CEM leukemia was 41.8 µM; in the test with SK-MEL-5 melanoma it was 34.7 µM; with OVCAR-5 ovarian, 78 µM; in the test on MCF7 breast, 34.8 µM; in the test on TK-10 renal, greater than 100 µM; with MDA-N, 82 µM. Besides, the TGI worked out at 63.6 µM in the test with M14 melanoma, 42.7 µM in the test on NCI-H23 lung and 56.8 µM in the test on HL-60(TB) leukemia.
As for `CN(C)c1cc[n+](-c2nc(/N=C(\[O-])C(F)(F)F)nc3c2ncn3C2CC(O)C(CO)O2)cc1` (stereo not given), the TGI in the test on CCRF-CEM leukemia, in the test with SK-MEL-5 melanoma, in the test with OVCAR-5 ovarian, in the test on MCF7 breast, with TK-10 renal and with MDA-N was greater than 100 µM in each case. For the same compound, the TGI with M14 melanoma, with NCI-H23 lung and in the test with HL-60(TB) leukemia was greater than 100 µM each time.
For `COc1cc(-c2ccccc2N)c2cccnc2c1OC`, the TGI in the test on CCRF-CEM leukemia was 22.5 µM; with SK-MEL-5 melanoma it was 26.3 µM; in the test with MCF7 breast, 18.3 µM; in the test with TK-10 renal, 23.7 µM; in the test on MDA-N, 20.2 µM; in the test on M14 melanoma, 19.3 µM. For the same compound, the figures for the TGI in the test with NCI-H23 lung and with HL-60(TB) leukemia were 19.6 µM and 16.5 µM, respectively.
On to `COc1ccc(-n2sc3ncccc3c2=O)cc1`, for which the TGI was greater than 100 µM in the test with CCRF-CEM leukemia; 44.6 µM in the test with SK-MEL-5 melanoma; 64.2 µM with OVCAR-5 ovarian; 49.1 µM with MCF7 breast; 33.5 µM in the test on TK-10 renal; 40.7 µM with MDA-N. Besides, the TGI in the test on M14 melanoma is 41.3 µM; in the test with NCI-H23 lung it was 36.8 µM; with HL-60(TB) leukemia, 41.5 µM.
Consider `Fc1cccc(F)c1C1SCc2nc3ccc(Cl)cc3n21` (stereo not given), for which the TGI in the test on CCRF-CEM leukemia, with SK-MEL-5 melanoma, in the test on OVCAR-5 ovarian, in the test with MCF7 breast, with TK-10 renal and with MDA-N was greater than 100 µM each time. For the same compound, the TGI with M14 melanoma, with NCI-H23 lung and with HL-60(TB) leukemia was greater than 100 µM throughout.
On to `C[Si](C)(C)C1=C([Si](C)(C)C)C(Cl)(Cl)C1=O`, for which the TGI in the test on CCRF-CEM leukemia amounted to 1.42 µM; in the test on SK-MEL-5 melanoma, 5.89 µM; with OVCAR-5 ovarian, 20 µM; in the test with MCF7 breast, 23.4 µM; in the test on TK-10 renal, 5.27 µM; with MDA-N it was 5.39 µM. Further, the TGI in the test on M14 melanoma stood at 9.24 µM; in the test on NCI-H23 lung, 18.4 µM; with HL-60(TB) leukemia it was 1.53 µM.
With `CCN(CC)c1ccc(/C=C/C=C2C(=O)NC(=S)NC2=O)cc1`, the TGI was greater than 100 µM in the test on CCRF-CEM leukemia; greater than 100 µM in the test with SK-MEL-5 melanoma; greater than 100 µM in the test with OVCAR-5 ovarian; greater than 100 µM in the test on MCF7 breast; greater than 100 µM with TK-10 renal; greater than 61.6 µM in the test with MDA-N. For the same compound, the figures for the TGI in the test on M14 melanoma, in the test with NCI-H23 lung and with HL-60(TB) leukemia were greater than 100 µM, greater than 100 µM and 11 µM, respectively.
On to `O=C(CCc1ccccc1)On1c(-c2ccccc2)nc2ccccc2c1=S`, for which the TGI is greater than 100 µM with CCRF-CEM leukemia; 47.2 µM in the test on SK-MEL-5 melanoma; 50.5 µM in the test on OVCAR-5 ovarian; greater than 100 µM in the test with MCF7 breast; greater than 100 µM with TK-10 renal; greater than 100 µM with MDA-N. The values for the TGI in the test with M14 melanoma, in the test on NCI-H23 lung and in the test with HL-60(TB) leukemia were 44.7 µM, 28 µM and greater than 100 µM, respectively.
For the compound `O=[N+]([O-])c1ccc(O)c(/C=N/NC(=S)N2CCCCC2)c1`, the TGI with CCRF-CEM leukemia was greater than 82 µM; in the test on SK-MEL-5 melanoma, 21 µM; with OVCAR-5 ovarian, greater than 100 µM; in the test on MCF7 breast it was greater than 100 µM; with TK-10 renal it was 44 µM; in the test on MDA-N, 60.1 µM. The TGI was greater than 100 µM in the test with M14 melanoma, 32.9 µM in the test on NCI-H23 lung and greater than 42.1 µM in the test with HL-60(TB) leukemia.
As to `COc1ccc(/C=C/C2=NN(c3cccc(S(=O)(=O)O)c3)C3(C2)SCC(=O)N3c2nc3ccccc3s2)cc1` (stereo not given), the TGI in the test with CCRF-CEM leukemia was 77.5 µM; in the test with SK-MEL-5 melanoma, greater than 100 µM; in the test on OVCAR-5 ovarian, greater than 100 µM; in the test with MCF7 breast, greater than 100 µM; with TK-10 renal it was greater than 100 µM; in the test with MDA-N, greater than 100 µM. Moreover, the TGI in the test on M14 melanoma, in the test on NCI-H23 lung and in the test on HL-60(TB) leukemia was greater than 100 µM each time.
In the case of `COc1ccccc1C[C@@H]1OC2(C=CC(=O)C=C2)O[C@H]1Cc1ccccc1OC`, the TGI amounted to 8.6 µM with CCRF-CEM leukemia; 16.1 µM in the test with SK-MEL-5 melanoma; 16.5 µM with OVCAR-5 ovarian; 17.6 µM in the test with MCF7 breast; 27.4 µM in the test on TK-10 renal; 21.7 µM with MDA-N. Further, the TGI with M14 melanoma came to 17.5 µM; with NCI-H23 lung it was 18.9 µM; in the test on HL-60(TB) leukemia, 29.8 µM.
